Measured values: patent US20240262842A1, “SMALL MOLECULE INHIBITORS OF KRAS G12C MUTANT” (Merck Sharp & Dohme LLC, priority 2021, published 2024)
Read-outs that look alike come from different tables or passages of the source.

Legend:
MIA PaCa-2 cells = experiment: Growth inhibition activity on KRAS-G12C mutant cell line (CellTiter-Glo 3D); type: cell-based, human; settings: MIA PaCa-2, 3-day culture with compound
Method: MIA PaCa-2 cells (given by Sumitomo Dainippon Pharma Co., Ltd.), which are a KRAS-G12C mutant human pancreas cancer cell line, were suspended in a 10% fetal bovine serum-containing RPMI1640 medium (manufactured by Fujifilm Wako Pure Chemical Corporation). The cell suspension was seeded into each well of a 384-well U bottom microplate and cultured in an incubator containing 5% CO2 gas at 37° C. for 1 day. The compounds obtained in the “Preparation of Compounds” section were used as test compounds and were dissolved in DMSO, respectively, and each test compound was diluted with DMSO to give a concentration 500 times the final concentration. The resultant solution of the test compound in DMSO was diluted with the medium used for suspending cells and added to each well of the cell-culture plate to give a DMSO final concentration of 0.2%, followed by culture in an incubator containing 5% CO2 gas at 37° C. for another 3 days. The cell count after 3-day culture in the presence of the test compound was measured using CellTiter-Glo 3D Reagent (manufactured by Promega Corporation). All wells were added with CellTiter-Glo 3D Reagent and mixed for 10 minutes. 30 minutes after mixing, luminescence was measured by a plate reader. The growth inhibition rate was calculated from the following equation, and the concentration of the test compound at which 50% inhibition was achieved (IC50 (nM)) was determined.
[formula] • T: the emission intensity in a well into which a test compound was added. • C: the emission intensity in a well into which a test compound was not added.

[1] = molecular target: T1, interaction between GMPPNP-bound recombinant K-Ras4B G12C mutant protein and cRAF RAS-binding domain (cRAF-RBD) (Homo sapiens, UniProt P01116, G12C); experiment: Inhibitory activity on interaction between KRAS G12C and cRAF (Alpha technology)
T1 construct: His-tag (N)
T1 sequence (P01116 with tags, fused parts or gaps isoform P01116-2 G12C): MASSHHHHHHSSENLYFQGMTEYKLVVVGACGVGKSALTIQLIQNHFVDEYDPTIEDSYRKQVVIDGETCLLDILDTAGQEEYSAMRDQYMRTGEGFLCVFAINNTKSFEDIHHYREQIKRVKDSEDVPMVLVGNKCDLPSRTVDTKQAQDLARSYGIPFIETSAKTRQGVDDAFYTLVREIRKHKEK
Method: Interaction between recombinant K-Ras4B G12C mutant protein (amino acids 1-169, SEQ ID NO:2) and cRAF RAS-binding domain (cRAF-RBD, amino acids 50-132, Jena Biosciences GmbH) was measured using Alpha technology (PerkinElmer Inc.).
Recombinant KRAS G12C protein with an N-terminal His-tag was expressed in E. coli and purified by affinity chromatography. To prepare GTP-bound form and GDP-bound form of KRAS G12C protein, 50 μM KRAS G12C protein was incubated with 1 mM GMPPNP (Guanosine-5′-[(β,γ)-imido]triphosphate, Tetralithium salt) (Jena Bioscience GmbH) and 1 mM GDP, respectively, in a loading buffer (20 mM Tris-HCl (pH 7.5), 50 mM NaCl, 1 mM DTT and 2.5 mM EDTA) for 1 hour on ice. After the incubation, MgCl2 was added to a final concentration of 10 mM, followed by incubation at room temperature for 30 minutes. The mixture was allowed to pass through a NAP-5 column to remove free nucleotides and purified, and the resultant nucleotide-bound KRAS G12C protein was used for compound evaluation.
For the measurement of the inhibitory activity of compounds on interaction between KRAS G12C and cRAF-RBD, GMPPNP-bound KRAS G12C protein was incubated with various concentrations of compound in a reaction buffer (20 mM Tris-HCl (pH 7.5), 100 mM NaCl, 1 mM MgCl2, 1 mM TCEP, 0.1% Tween 20) at 25° C. for 1 hour. After the incubation, recombinant cRAF-RBD and Alpha detection reagents were added and incubated at room temperature for 1.5 hours for binding. Interaction of KRAS G12C and cRAF-RBD was monitored by measuring Alpha signal. Inhibition % was calculated using the signal from the reaction without test compound (DMSO control) as 0% inhibition and the signal from the reaction using GDP-bound KRAS G12C in place of GMPPNP-bound KRAS G12C as 100% inhibition. IC50 values were calculated from dose titration curve using curve fitting by XLfit software (IDBS).

[2] = GMPPNP-bound KRAS G12C incubated with compound 25° C. 1 hour, Table 2, read-out: IC50
[3] = Homo sapiens, MIA PaCa-2, 72 h, Table 3-1
[4] = GMPPNP-bound KRAS G12C incubated with compound 25° C. 1 hour, Table 2-1, read-out: IC50
[5] = IC50, GMPPNP-bound KRAS G12C incubated with compound 25° C. 1 hour, Table 2-1

With Cc1nc2c3c(c(C(F)(F)F)cc2n1C)-c1cccn2c(C(=O)c4cc(F)c(NC(=O)/C=C/CNC5(C)COC5)c(F)c4)cc(c12)CCO3 (single isomer, unassigned) [Example 31-2, (E)-N-(4-(9,10-dimethyl-7-(trifluoromethyl)-13,14-dihydro-9H-imidazo[4″,5″:5′,6′]benzo[1′,2′:2,3]oxocino[4,5,6-hi]indolizine-2-carbonyl)-2,6-difluorophenyl)-4-((3-methyloxetan-3-yl)amino)but-2-enamide] the IC50 (MIA PaCa-2 cells; Table 3) was 9200 nM and the IC50 [1, 2] was > 6700 nM.

For Cc1nc2c3c(c(C(F)(F)F)cc2n1C)-c1cccn2c(C(=O)c4cc(F)c(NC(=O)/C=C/CN(C)C)c(F)c4)cc(c12)CCO3 (single isomer, unassigned) [Example 38-1], the IC50 (MIA PaCa-2 cells; Table 3) was 8300 nM and the IC50 [1, 2] was > 6700 nM.

Compound Cc1nc2c3c(c(C(F)(F)F)cc2n1C)-c1cccn2c(C(=O)c4cc(F)c(NC(=O)/C=C/CN(C)C)c(F)c4)cc(c12)CCO3 (single isomer, unassigned) [Example 38-2] has an IC50 (MIA PaCa-2 cells; Table 3) of 19 nM and an IC50 [1, 2] of 27 nM.

With CO[C@H]1CC[C@H](NC/C=C/C(=O)Nc2c(F)cc(C(=O)c3cc4c5c(cccn35)-c3c(C(F)(F)F)cc5c(nc(C)n5C)c3OC(C)C4)cc2F)CC1 (single isomer, unassigned) [Example 42-1, (E)-N-(2,6-difluoro-4-(9,10,13-trimethyl-7-(trifluoromethyl)-13,14-dihydro-9H-imidazo[4″,5″:5′,6′]benzo[1′,2′:2,3]oxocino[4,5,6-hi]indolizine-2-carbonyl)phenyl)-4-(((1r,4r)-4-methoxycyclohexyl)amino)but-2-enamide] the IC50 (MIA PaCa-2 cells; Table 3) was 6 nM and the IC50 [1, 2] was 11 nM.

CO[C@H]1CC[C@H](NC/C=C/C(=O)Nc2c(F)cc(C(=O)c3cc4c5c(cccn35)-c3c(C(F)(F)F)cc5c(nc(C)n5C)c3OC(C)C4)cc2F)CC1 (single isomer, unassigned) [Example 42-2, (E)-N-(2,6-difluoro-4-(9,10,13-trimethyl-7-(trifluoromethyl)-13,14-dihydro-9H-imidazo[4″,5″:5′,6′]benzo[1′,2′:2,3]oxocino[4,5,6-hi]indolizine-2-carbonyl)phenyl)-4-(((1r,4r)-4-methoxycyclohexyl)amino)but-2-enamide] was tested, and the IC50 (MIA PaCa-2 cells; Table 3) was 450 nM and the IC50 [1, 2] was 1100 nM.

Cc1nc2c3c(c(C(F)(F)F)cc2n1C)-c1cccn2c(C(=O)c4cc(F)c(NC(=O)/C=C/CNC5(C)CCOC5)c(F)c4)cc(c12)CCO3 (single isomer, unassigned) [Example 52] was tested, and the IC50 (MIA PaCa-2 cells; [3]) was 1.44 nM and the IC50 [1, 4] was 4.55 nM.

Work on Cc1nc2c3c(c(C(F)(F)F)cc2n1C)-c1cccc2c(C(=O)c4cc(F)c(NC(=O)/C=C/CNC5(C)COC5)c(F)c4)cn(c12)CCN3C (single isomer, unassigned) [Example 54] yielded an IC50 (MIA PaCa-2 cells; [3]) of 5.39 nM and an IC50 [1, 5] of 22.1 nM.

CO[C@H]1CC[C@H](NC/C=C/C(=O)Nc2c(F)cc(C(=O)c3cn4c5c(cccc35)-c3c(C(F)(F)F)cc5c(nc(C)n5C)c3N(C)CC4)cc2F)CC1 (single isomer, unassigned) [Example 55, (E)-N-(2,6-difluoro-4-(8,9,11-trimethyl-6-(tri-fluoromethyl)-8,11,12,13-tetrahydroimidazo[4″,5″: 5′,6′]benzo[1′,2′:5,6][1,4]-diazocino[7,8,1-hi]indole-2-carbonyl)phenyl)-4-(((1r,4r)-4-methoxycyclo-hexyl)amino)but-2-en-amide] was tested, and the IC50 (MIA PaCa-2 cells; [3]) was 3.36 nM and the IC50 [1, 5] was 11.7 nM.

Compound CO[C@H]1CC[C@H](NC/C=C/C(=O)Nc2c(F)cc(C(=O)c3cn4c5c(cccc35)-c3c(C)cc5c(nc(C)n5C)c3N(C)CC4)cc2F)CC1 (single isomer, unassigned) [Example 62] has an IC50 (MIA PaCa-2 cells; [3]) of 6.91 nM and an IC50 [1, 5] of 17.4 nM.

CO[C@H]1CC[C@H](NC/C=C/C(=O)Nc2c(F)cc(C(=O)c3cc4c5c(cccn35)-c3c(C(F)(F)F)cc5c(nc(C)n5C)c3N(C)CC4)cc2F)CC1 (single isomer, unassigned) [Example 63, (E)-N-(2,6-difluoro-4-(9,10,12-trimethyl-7-(tri-fluoromethyl)-9,12,13,14-tetrahydroimidazo-[4″,5″:5′,6′]benzo[1′,2′: 2,3]azocino[4,5,6-hi]-indolizine-2-carbonyl)-phenyl)-4-(((1r,4r)-4-methoxycyclohexyl)-amino)but-2-enamide] was tested, and the IC50 (MIA PaCa-2 cells; [3]) was 2.48 nM and the IC50 [1, 4] was 14.2 nM.

CO[C@H]1CC[C@H](NC/C=C/C(=O)Nc2c(F)cc(C(=O)c3c(C)c4c5c(cccn35)-c3c(C(F)(F)F)cc5c(nc(C)n5C)c3OCC4)cc2F)CC1 (single isomer, unassigned) [Example 64, (E)-N-(2,6-difluoro-4-(1,9,10-trimethyl-7-(tri-fluoromethyl)-13,14-dihydro-9H-imidazo-[4″,5″:5′,6′]benzo[1′,2′: 2,3]oxocino[4,5,6-hi]-indolizine-2-carbonyl)-phenyl)-4-(((1r,4r)-4-methoxycyclohexyl)-amino)but-2-enamide] showed an IC50 (MIA PaCa-2 cells; [3]) of 11 nM and an IC50 [1, 4] of 14.2 nM.

Work on Cc1cc2c(nc(C)n2C)c2c1-c1cccc3c(C(=O)c4cc(F)c(NC(=O)/C=C/CNC5(C)COC5)c(F)c4)cn(c13)CCN2C (single isomer, unassigned) [Example 65, (E)-N-(2,6-difluoro-4-(6,8,9,11-tetramethyl-8,11,12,13-tetrahydro-imidazo[4″,5″:5′,6′]benzo-[1′,2′:5,6][1,4]diazocino-[7,8,1-hi]indole-2-carbon-yl)phenyl)-4-((3-methyl-oxetan-3-yl)amino)but-2-enamide] yielded an IC50 (MIA PaCa-2 cells; [3]) of 95.1 nM and an IC50 [1, 5] of 69.5 nM.

CO[C@H]1CC[C@H](NC/C=C/C(=O)Nc2c(F)cc(C(=O)c3cc4c5c(cccn35)-c3c(C)cc5c(nc(C)n5C)c3N(C)CC4)cc2F)CC1 (single isomer, unassigned) [Example 69, (E)-N-(2,6-difluoro-4-(7,9,10,12-tetramethyl-9,12,13,14-tetrahydro-imidazo[4″,5″:5′,6′]benzo-[1′,2′:2,3]azocino[4,5,6-hi]indolizine-2-carbonyl)-phenyl)-4-(((1r,4r)-4-methoxycyclohexyl)-amino)but-2-enamide] was tested, and the IC50 (MIA PaCa-2 cells; [3]) was 15.5 nM and the IC50 [1, 4] was 19.8 nM.

Cc1nc2c3c(c(C(F)(F)F)cc2n1C)-c1cccn2c(C(=O)c4cc(F)c(NC(=O)/C=C/CNC5(C)CCOCC5)c(F)c4)cc(c12)CCN3C (single isomer, unassigned) [Example 70, (E)-N-(2,6-difluoro-4-(9,10,12-trimethyl-7-(tri-fluoromethyl)-9,12,13,14-tetrahydroimidazo[4″,5″: 5′,6′]benzo[1′,2′:2,3]-azocino[4,5,6-hi]indol-izine-2-carbonyl)phenyl)-4-((4-methyltetrahydro-2H-pyran-4-yl)amino)but-2-enamide] was tested, and the IC50 (MIA PaCa-2 cells; [3]) was 2.49 nM and the IC50 [1, 4] was 9.85 nM.

Work on Cc1nc2c3c(c(C(F)(F)F)cc2n1C)-c1cccn2c(C(=O)c4cc(F)c(NC(=O)/C=C/CNC5(C)COC5)c(F)c4)cc(c12)CCN3C (single isomer, unassigned) [Example 71, (E)-N-(2,6-difluoro-4-(9,10,12-trimethyl-7-(trifluoromethyl)-9,12,13,14-tetrahydroimidazo[4″,5″:5′,6′]benzo[1′,2′:2,3]azocino[4,5,6-hi]indolizine-2-carbonyl)phenyl)-4-((3-methyloxetan-3-yl)amino)but-2-enamide] yielded an IC50 (MIA PaCa-2 cells; [3]) of 9.6 nM and an IC50 [1, 4] of 20.2 nM.
